Assay results taken from ChEMBL document CHEMBL5108027, “An unanticipated discovery of novel naphthalimidopropanediols as potential broad-spectrum antibacterial members” (Eur J Med Chem, 2022).
Values after ≈ are worked out from the molar mass of the structure shown. Active and inactive are the calls of the source. No cut-off for these calls is given here.

What was measured:
Staphylococcus aureus [1] = test: Disruption of membrane integrity in Staphylococcus aureus at 8 times MIC by calcein-AM/PI staining based fluorescence analysis; assay type: functional, organism-based
Escherichia coli [2] = test: Antibacterial activity against Escherichia coli assessed as lysed debris at 8 to 16 ug/ml measured by SEM analysis; assay type: functional, organism-based; conditions: dose 8-16 µg/ml
Pseudomonas aeruginosa [3] = test: Antibacterial activity against Pseudomonas aeruginosa ATCC 27853 measured by Muller-Hinton broth based microdilution assay; assay type: functional
Staphylococcus aureus [4] = test: Antibacterial activity against Staphylococcus aureus assessed as lysed debris at 1 to 2 ug/ml measured by SEM analysis; assay type: functional, organism-based; conditions: dose 1-2 µg/ml
[5] = Hemolytic activity in human RBC assessed as hemolytic rate at 2 to 512 ug/ml and measured after 1 hr; assay type: toxicity, cell-based, Erythrocyte; conditions: human red blood cells (erythrocytes), at 2 to 512 µg/mL, dose 2-512 µg/ml, read-out: Activity
Staphylococcus aureus [6] = test: Disruption of membrane integrity in Staphylococcus aureus assessed as increase in protein leakage by measuring increase in absorbance 1 to 8 times MIC measured for 6 hrs by Bradford assay; assay type: functional, organism-based
[7] = Hemolytic activity in human RBC measured after 1 hr; assay type: toxicity, cell-based, Erythrocyte; conditions: human red blood cells (erythrocytes)
Staphylococcus aureus [8] = test: Antibacterial activity against Staphylococcus aureus assessed as deformed and shriveled cell structures at 1 to 2 ug/ml measured by SEM analysis; assay type: functional, organism-based; conditions: dose 1-2 µg/ml
Klebsiella pneumoniae = test: Antibacterial activity against Klebsiella pneumoniae measured by Muller-Hinton broth based microdilution assay; assay type: functional
Staphylococcus aureus [9] = test: Induction of membrane depolarization in Staphylococcus aureus at 0.5 to 2 times MIC measured upto 1 hr by DiSC35 dye-based fluorescence assay; assay type: functional, organism-based
L929 = test: Cytotoxicity against mouse L929 cells assessed as effect on cell growth at 0.25 to 0.5 ug/ml incubated for 24 hrs by MTT assay; assay type: toxicity, cell-based; conditions: l929, 24 h, dose 0.25-0.5 µg/ml
Pseudomonas aeruginosa [10] = test: Antibacterial activity against Pseudomonas aeruginosa measured by Muller-Hinton broth based microdilution assay; assay type: functional
Staphylococcus aureus [11] = test: Antibacterial activity against methicillin-resistant Staphylococcus aureus N315 measured by Muller-Hinton broth based microdilution assay; assay type: functional
Staphylococcus aureus [12] = test: Antibiofilm activity in Staphylococcus aureus at 1 to 8 times MIC measured by Alamar blue assay; assay type: functional, organism-based
[13] = Toxicity in systemic sepsis mouse model infected with Staphylococcus aureus assessed as effect on kidney morphology at 2.5 to 5 mg/kg administered every 12 hrs for 3 days and measured by H and E staining-based assay; assay type: organism-based; conditions: in vivo, 72 h, dose 2.5-5 mg/kg, time 3 day
Staphylococcus aureus [14] = test: Bactericidal activity against Staphylococcus aureus assessed as reduction in number of colonies at 0.5 to 2 times MIC measured within 6 hrs by time-kill assay; assay type: functional, organism-based
Staphylococcus aureus [15] = test: Inhibition of biofilm formation in Staphylococcus aureus at 1 to 8 times MIC measured after 24 hrs by crystal violet staining method; assay type: functional, organism-based
Staphylococcus aureus [16] = test: Induction of oxidative stress in Staphylococcus aureus assessed as increase in intracellular ROS level at 1 to 8 times MIC measured after 6 hrs by DCFH-DA staining method; assay type: functional, organism-based
Staphylococcus aureus [17] = test: Antibacterial activity against Staphylococcus aureus measured by Muller-Hinton broth based microdilution assay; assay type: functional
Staphylococcus aureus [18] = test: Antibacterial activity against Staphylococcus aureus ATCC 25923 measured by Muller-Hinton broth based microdilution assay; assay type: functional
Staphylococcus aureus [19] = test: Antibacterial activity against Staphylococcus aureus assessed as reduction in metabolic activity at 1 to 8 times MIC measured after 6 hrs by Alamar blue assay; assay type: functional, organism-based
Acinetobacter baumannii = test: Antibacterial activity against Acinetobacter baumannii measured by Muller-Hinton broth based microdilution assay; assay type: functional
Escherichia coli [20] = test: Antibacterial activity against Escherichia coli measured by Muller-Hinton broth based microdilution assay; assay type: functional
Staphylococcus aureus [21] = test: Induction of oxidative stress in Staphylococcus aureus assessed as decrease in GSH activity at 1 to 8 times MIC measured after 6 hrs by Ellman's assay; assay type: functional, organism-based
Staphylococcus aureus [22] = test: Antibacterial activity against Staphylococcus aureus measured after 16 passages by resistance development assay; assay type: functional, organism-based
Staphylococcus aureus [23] = test: Disruption of membrane integrity in Staphylococcus aureus assessed as increase in nucleic acid leakage by measuring increase in absorbance 1 to 8 times MIC measured for 6 hrs by spectrophotometry; assay type: functional, organism-based
Staphylococcus aureus [24] = test: Inhibition of bacterial growth of Staphylococcus aureus at 1 to 2 times MIC; assay type: functional
Staphylococcus aureus [25] = test: Induction of inner membrane permeabilization in Staphylococcus aureus by measuring increase in fluorescence intensity at 1 to 8 times MIC by calcein-AM/PI staining based fluorescence analysis; assay type: functional, organism-based
Staphylococcus aureus [26] = test: Antibacterial activity against Staphylococcus aureus ATCC 29213 measured by Muller-Hinton broth based microdilution assay; assay type: functional
[27] = Toxicity in systemic sepsis mouse model infected with Staphylococcus aureus assessed as effect on spleen morphology at 2.5 to 5 mg/kg administered every 12 hrs for 3 days and measured by H and E staining-based assay; assay type: organism-based; conditions: in vivo, 72 h, dose 2.5-5 mg/kg, time 3 day
Escherichia coli [28] = test: Antibacterial activity against Escherichia coli assessed as deformed and shriveled cell structures at 8 to 16 ug/ml measured by SEM analysis; assay type: functional, organism-based; conditions: dose 8-16 µg/ml
Escherichia coli [29] = test: Antibacterial activity against Escherichia coli ATCC 25922 measured by Muller-Hinton broth based microdilution assay; assay type: functional
Enterococcus faecalis = test: Antibacterial activity against Enterococcus faecalis measured by Muller-Hinton broth based microdilution assay; assay type: functional
[30] = Toxicity in systemic sepsis mouse model infected with Staphylococcus aureus assessed as effect on liver morphology at 2.5 to 5 mg/kg administered every 12 hrs for 3 days and measured by H and E staining-based assay; assay type: organism-based; conditions: in vivo, 72 h, dose 2.5-5 mg/kg, time 3 day
[31] = Selectivity ratio of HC50 for hemolytic activity in human RBC to MIC for antibacterial activity against Staphylococcus aureus; assay type: toxicity; conditions: human red blood cells (erythrocytes)
Staphylococcus aureus [32] = test: Antibacterial activity against Staphylococcus aureus assessed as reduction in LDH activity at 1 to 8 times MIC measured after 6 hrs by microplate reader method; assay type: functional; parameters: scale not given: the % may be the effect or the level left

## CCn1c2ccccc2c2cc(/C=N/Nc3ccc4c5c(cccc35)C(=O)N(C(CO)CO)C4=O)ccc21
Staphylococcus aureus [1]
  Activity: Active
Escherichia coli [2]
  Activity: Active
Pseudomonas aeruginosa [3]
  MIC: 2 µg/mL (≈ 3.95 µM)
Staphylococcus aureus [4]
  Activity: Active
[5]
  hemolysis at 1 h: < 5%
Staphylococcus aureus [6]
  Activity: Active
[7]
  HC50 at 1 h: 722 µg/mL
Staphylococcus aureus [8]
  Activity: Active
Klebsiella pneumoniae
  MIC: 8 µg/mL (≈ 15.8 µM)
Staphylococcus aureus [9]
  Activity: Active
L929
  Activity: Non-Toxic
Pseudomonas aeruginosa [10]
  MIC: 64 µg/mL (≈ 126 µM)
Staphylococcus aureus [11]
  MIC: 64 µg/mL (≈ 126 µM)
Staphylococcus aureus [12]
  Activity: Active
[13]
  Activity: Non-Toxic
Staphylococcus aureus [14]
  Activity: Active
Staphylococcus aureus [15]
  inhibition: Active
Staphylococcus aureus [16]
  Activity: Active
Staphylococcus aureus [17]
  MIC: 0.25 µg/mL (≈ 0.494 µM)
Staphylococcus aureus [18]
  MIC: 2 µg/mL (≈ 3.95 µM)
Staphylococcus aureus [19]
  Activity: Active
Acinetobacter baumannii
  MIC: 64 µg/mL (≈ 126 µM)
Escherichia coli [20]
  MIC: 8 µg/mL (≈ 15.8 µM)
Staphylococcus aureus [21]
  Activity: Active
Staphylococcus aureus [22]
  Activity: Active
Staphylococcus aureus [23]
  Activity: Active
Staphylococcus aureus [24]
  inhibition: Active
Staphylococcus aureus [25]
  Activity: Active
Staphylococcus aureus [26]
  MIC: 0.5 µg/mL (≈ 0.987 µM)
[27]
  Activity: Non-Toxic
Escherichia coli [28]
  Activity: Active
Escherichia coli [29]
  MIC: 128 µg/mL (≈ 253 µM)
Enterococcus faecalis
  MIC: 8 µg/mL (≈ 15.8 µM)
[30]
  Activity: Non-Toxic
[31]
  selectivity ratio: 2890
Staphylococcus aureus [32]
  Activity: 70%
